Measurements from patent publication US20230365559A1, “NOVEL AMINOPYRIDINES AND THEIR USE IN TREATING CANCER” (priority 2020, published 2023).
pIC50: −log10 of the molar value. Several values for one entry are separate records, joined by “and”; a condition that tells them apart may be missing. Equal entries are not always repeated. Where two headings read alike, the source gives them in different places.

Key:
human DNA-PK = human DNA-PK (Homo sapiens, UniProt P78527); experiment: Inhibition of DNA-PKcs kinase activity, HotSpot assay (Reaction Biology), [γ-33P]-ATP phosphorylation of peptide substrate; assay type: biochemical; details: for IC50: 10 μM ATP, 10 μg/ml DNA, mean of two replicates, Table 12, read-out: Inhibition of kinase activity (as IC50) DNA-PK (converted); for pIC50: HotSpot assay Reaction Biology Corp., Table 15, read-out: Inhibition of PIKK kinase activity DNA-PK
ATM = ATM (Homo sapiens, UniProt Q13315); experiment: ATM Human PIKK Kinase Enzymatic ELISA/EIA Assay, KinaseProfiler (Eurofins Discovery); assay type: biochemical; details: for pIC50: KinaseProfiler, Km ATP, Table 15, read-out: Inhibition of PIKK kinase activity ATM
HAP1/PRKDC−/− cells = experiment: Radiosensitisation of DNA-PK null HAP1/PRKDC−/− cells, regrowth assay; assay type: cell-based, human; details: for radiosensitisation / differential growth inhibition of DNA-PK null HAP1 line: 3 Gy, HAP1/PRKDC−/−; for pIC50: Homo sapiens, HAP1
UT-SCC-54C cells [1] = experiment: Radiosensitisation of UT-SCC-54C HNSCC cells, regrowth (sulforhodamine B) assay, oxic (Table 16); assay type: cell-based, human; details: for pIC50: Homo sapiens, read-out: IC50; for S50: compound in combination with 3 Gy of radiation, 50% inhibition of regrowth fraction, UT-SCC-54C
human PI3Kα (p110α/p85α) = human PI3Kα (p110α/p85α) (Homo sapiens, UniProt P42336); experiment: Inhibition of PI3Kα kinase activity, ADP-Glo Assay (Reaction Biology); assay type: biochemical; details: 10 μM ATP; mean of two replicates; Table 12; read-out: Inhibition of kinase activity (as IC50) PICK
HAP1 cells = experiment: Radiosensitisation of HAP1 wild type cells, regrowth assay; assay type: cell-based, human; details: for effect in unirradiated HAP1 cells: 0 Gy; for radiosensitisation / differential growth inhibition of HAP1 cells: 3 Gy cobalt-60 gamma irradiation relative to radiation-only; for pIC50: Homo sapiens, HAP1, read-out: HAP1 wt IC50
human mTOR = human mTOR (Homo sapiens, UniProt P42345); experiment: Inhibition of mTOR kinase activity, HotSpot assay, phosphorylation of 4EPB1
UT-SCC-54C cells [2] = experiment: Radiosensitisation of UT-SCC-54C HNSCC cells, clonogenic survival, oxic and anoxic (Table 18); assay type: cell-based, human; details: for Plating efficiency drug/no drug: no radiation
ATR/ATRIP = ATR/ATRIP (Homo sapiens, UniProt Q13535); experiment: ATR/ATRIP Human PIKK Kinase Enzymatic Radiometric Assay, KinaseProfiler (Eurofins Discovery); assay type: biochemical; details: Km ATP, Table 15, read-out: Inhibition of PIKK kinase activity ATR
Ser2056 of DNA-PKcs = Ser2056 of DNA-PKcs (Homo sapiens, UniProt P78527); experiment: Inhibition of cellular autophosphorylation at Ser2056 of DNA-PKcs in UT-SCC-54C cells, western immunoblotting; assay type: cell-based; details: oxia, 10 Gy, FIG. 7 (10 μM)
[3] = Inhibition of PIKK kinase activity mTOR/FRAP (nM), HotSpot assay Reaction Biology Corp., Table 15
[4] = Inhibition of kinase activity (as IC50) mTOR (nM), 10 μM ATP, mean of two replicates, Table 12

ATM, sequence (Q13315 whole entry): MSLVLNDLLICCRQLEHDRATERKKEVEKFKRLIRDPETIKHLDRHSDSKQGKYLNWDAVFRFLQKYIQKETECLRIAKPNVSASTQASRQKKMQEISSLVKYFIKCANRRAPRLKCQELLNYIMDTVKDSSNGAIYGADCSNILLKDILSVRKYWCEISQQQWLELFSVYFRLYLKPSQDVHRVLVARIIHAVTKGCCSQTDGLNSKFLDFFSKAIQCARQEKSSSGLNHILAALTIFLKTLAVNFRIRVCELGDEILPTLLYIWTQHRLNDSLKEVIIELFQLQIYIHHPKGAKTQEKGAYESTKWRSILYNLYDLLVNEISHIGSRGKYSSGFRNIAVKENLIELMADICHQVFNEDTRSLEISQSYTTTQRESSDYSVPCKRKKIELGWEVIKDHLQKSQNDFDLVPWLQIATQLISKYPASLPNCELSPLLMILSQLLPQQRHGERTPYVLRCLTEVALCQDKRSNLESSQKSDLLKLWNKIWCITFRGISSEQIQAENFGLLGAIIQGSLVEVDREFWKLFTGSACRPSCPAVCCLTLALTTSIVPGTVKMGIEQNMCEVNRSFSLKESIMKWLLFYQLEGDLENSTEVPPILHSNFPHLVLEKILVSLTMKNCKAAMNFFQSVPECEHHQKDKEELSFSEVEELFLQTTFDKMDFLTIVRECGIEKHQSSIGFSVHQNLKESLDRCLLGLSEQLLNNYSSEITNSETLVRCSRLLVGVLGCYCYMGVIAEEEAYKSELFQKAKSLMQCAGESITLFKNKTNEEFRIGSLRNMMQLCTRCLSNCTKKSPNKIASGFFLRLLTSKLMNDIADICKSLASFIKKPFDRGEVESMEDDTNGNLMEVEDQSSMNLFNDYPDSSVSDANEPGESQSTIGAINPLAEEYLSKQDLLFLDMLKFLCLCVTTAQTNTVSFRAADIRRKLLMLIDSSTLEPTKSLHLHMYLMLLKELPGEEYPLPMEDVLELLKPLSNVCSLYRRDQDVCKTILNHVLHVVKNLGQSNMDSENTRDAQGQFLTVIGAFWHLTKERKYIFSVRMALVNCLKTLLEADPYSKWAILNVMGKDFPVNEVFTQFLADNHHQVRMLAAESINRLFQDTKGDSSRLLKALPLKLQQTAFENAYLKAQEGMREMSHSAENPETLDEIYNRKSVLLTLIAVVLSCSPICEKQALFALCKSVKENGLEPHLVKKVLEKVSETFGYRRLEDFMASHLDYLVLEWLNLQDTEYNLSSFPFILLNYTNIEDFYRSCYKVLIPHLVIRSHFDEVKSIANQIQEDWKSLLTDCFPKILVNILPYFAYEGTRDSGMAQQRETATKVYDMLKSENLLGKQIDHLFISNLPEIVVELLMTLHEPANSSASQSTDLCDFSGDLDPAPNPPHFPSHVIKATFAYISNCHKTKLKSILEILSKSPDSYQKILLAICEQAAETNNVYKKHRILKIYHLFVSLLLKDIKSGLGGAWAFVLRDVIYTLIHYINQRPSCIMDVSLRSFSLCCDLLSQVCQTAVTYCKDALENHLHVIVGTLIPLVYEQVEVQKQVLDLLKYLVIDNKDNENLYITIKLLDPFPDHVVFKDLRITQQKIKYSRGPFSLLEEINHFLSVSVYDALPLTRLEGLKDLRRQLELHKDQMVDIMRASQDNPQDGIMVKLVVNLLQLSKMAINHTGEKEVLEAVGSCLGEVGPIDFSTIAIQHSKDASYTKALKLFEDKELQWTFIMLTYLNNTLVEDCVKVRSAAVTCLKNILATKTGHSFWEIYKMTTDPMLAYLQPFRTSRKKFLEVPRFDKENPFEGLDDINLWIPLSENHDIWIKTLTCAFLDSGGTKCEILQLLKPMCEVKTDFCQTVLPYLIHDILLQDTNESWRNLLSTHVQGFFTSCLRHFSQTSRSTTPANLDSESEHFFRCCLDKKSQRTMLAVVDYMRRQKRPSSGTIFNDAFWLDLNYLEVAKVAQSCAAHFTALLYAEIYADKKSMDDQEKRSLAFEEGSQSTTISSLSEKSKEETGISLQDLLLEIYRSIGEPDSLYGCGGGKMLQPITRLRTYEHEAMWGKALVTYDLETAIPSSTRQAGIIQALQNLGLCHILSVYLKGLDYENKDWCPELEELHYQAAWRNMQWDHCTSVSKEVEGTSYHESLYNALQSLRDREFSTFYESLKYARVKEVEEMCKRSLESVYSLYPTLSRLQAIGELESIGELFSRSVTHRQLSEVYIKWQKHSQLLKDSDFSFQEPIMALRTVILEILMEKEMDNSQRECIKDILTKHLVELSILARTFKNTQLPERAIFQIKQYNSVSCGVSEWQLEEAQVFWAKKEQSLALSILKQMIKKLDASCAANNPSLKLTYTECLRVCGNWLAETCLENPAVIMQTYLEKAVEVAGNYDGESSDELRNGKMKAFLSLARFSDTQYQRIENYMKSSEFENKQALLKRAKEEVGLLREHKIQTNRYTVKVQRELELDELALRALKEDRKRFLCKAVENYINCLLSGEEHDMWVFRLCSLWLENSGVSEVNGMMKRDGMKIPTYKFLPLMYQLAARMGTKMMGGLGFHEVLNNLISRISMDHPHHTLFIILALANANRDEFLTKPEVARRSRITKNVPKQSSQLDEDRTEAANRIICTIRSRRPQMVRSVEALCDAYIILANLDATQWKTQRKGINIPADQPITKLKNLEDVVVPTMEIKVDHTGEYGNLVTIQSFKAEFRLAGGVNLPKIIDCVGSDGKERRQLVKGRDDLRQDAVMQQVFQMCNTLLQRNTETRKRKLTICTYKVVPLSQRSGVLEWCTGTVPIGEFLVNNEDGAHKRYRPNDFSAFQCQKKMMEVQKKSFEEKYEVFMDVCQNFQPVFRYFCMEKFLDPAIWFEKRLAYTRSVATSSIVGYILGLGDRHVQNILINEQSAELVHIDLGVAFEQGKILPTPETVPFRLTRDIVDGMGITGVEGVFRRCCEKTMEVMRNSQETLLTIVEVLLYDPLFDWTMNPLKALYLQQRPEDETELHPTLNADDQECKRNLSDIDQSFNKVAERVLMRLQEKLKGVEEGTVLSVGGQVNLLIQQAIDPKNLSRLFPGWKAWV
human PI3Kα (p110α/p85α), sequence (P42336 whole entry): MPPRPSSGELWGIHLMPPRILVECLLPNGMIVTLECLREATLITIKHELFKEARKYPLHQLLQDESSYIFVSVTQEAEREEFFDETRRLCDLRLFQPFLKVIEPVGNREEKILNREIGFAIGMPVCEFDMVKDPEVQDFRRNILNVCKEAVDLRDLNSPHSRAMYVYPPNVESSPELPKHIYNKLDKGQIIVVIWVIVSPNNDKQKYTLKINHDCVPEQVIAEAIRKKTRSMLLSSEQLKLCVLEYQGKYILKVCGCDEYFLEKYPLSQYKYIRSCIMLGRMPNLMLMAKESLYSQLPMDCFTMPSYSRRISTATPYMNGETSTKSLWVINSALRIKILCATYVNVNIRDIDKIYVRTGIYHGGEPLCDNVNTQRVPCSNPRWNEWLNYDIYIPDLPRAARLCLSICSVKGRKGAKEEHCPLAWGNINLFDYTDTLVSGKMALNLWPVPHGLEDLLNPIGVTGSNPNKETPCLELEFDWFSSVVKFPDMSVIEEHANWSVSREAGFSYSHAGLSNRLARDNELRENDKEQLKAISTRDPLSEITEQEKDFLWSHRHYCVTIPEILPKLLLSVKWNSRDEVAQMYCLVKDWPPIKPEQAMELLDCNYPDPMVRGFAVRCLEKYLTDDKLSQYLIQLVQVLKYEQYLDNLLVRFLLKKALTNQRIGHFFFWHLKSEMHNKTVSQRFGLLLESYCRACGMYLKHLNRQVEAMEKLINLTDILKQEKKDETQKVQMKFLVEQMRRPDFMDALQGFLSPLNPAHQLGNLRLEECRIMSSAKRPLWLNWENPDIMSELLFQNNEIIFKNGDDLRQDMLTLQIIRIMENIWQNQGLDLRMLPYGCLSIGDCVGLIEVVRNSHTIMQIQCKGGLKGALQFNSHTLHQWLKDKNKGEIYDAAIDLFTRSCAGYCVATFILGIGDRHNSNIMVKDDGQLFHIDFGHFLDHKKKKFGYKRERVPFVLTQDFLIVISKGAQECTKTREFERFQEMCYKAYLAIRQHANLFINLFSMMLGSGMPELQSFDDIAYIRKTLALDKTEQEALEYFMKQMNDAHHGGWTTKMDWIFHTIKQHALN
human PI3Kα (p110α/p85α), sequence (P27986 whole entry partner): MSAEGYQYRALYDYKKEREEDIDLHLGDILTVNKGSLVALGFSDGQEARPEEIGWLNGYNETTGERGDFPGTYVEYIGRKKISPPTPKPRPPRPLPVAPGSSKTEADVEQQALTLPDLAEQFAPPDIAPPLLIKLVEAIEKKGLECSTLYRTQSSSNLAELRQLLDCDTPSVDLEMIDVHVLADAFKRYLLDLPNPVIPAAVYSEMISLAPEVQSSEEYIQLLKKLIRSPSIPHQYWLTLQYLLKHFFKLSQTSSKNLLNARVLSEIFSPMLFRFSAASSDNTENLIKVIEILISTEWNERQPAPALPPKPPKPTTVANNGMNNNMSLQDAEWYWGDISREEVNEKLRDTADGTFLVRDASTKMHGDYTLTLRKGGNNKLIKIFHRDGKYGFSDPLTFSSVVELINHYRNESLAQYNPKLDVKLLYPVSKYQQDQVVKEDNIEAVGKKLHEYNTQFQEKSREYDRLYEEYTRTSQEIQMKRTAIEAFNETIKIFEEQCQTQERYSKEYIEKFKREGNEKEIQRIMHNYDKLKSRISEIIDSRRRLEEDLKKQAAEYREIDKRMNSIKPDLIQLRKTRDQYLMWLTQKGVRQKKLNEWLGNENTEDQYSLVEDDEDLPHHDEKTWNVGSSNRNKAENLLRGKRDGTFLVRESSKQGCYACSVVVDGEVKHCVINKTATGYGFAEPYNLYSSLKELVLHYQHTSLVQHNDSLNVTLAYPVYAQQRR

For Cc1nc2cc(C)c(Nc3cc4c(cn3)n(C)c(=O)n4C3CCOCC3)cc2s1 [Compound 127, 6-((2,5-Dimethylbenzo[d]thiazol-6-yl)amino)-3-methyl-1-(tetrahydro-2H-pyran-4-yl)-1,3-dihydro-2H-imidazo[4,5-c]pyridin-2-one], the IC50 (human DNA-PK) was 0.00711 µM, the pIC50 (human DNA-PK) was 8.15 and the pIC50 (ATM) was 5.59. The “radiosensitisation / differential growth inhibition of DNA-PK null HAP1 line” value (HAP1/PRKDC−/− cells) was “did not radiosensitise”, the pIC50 (HAP1/PRKDC−/− cells) was under 5.00 and the pIC50 (UT-SCC-54C cells [1]) was under 5.00. The “S50” value (UT-SCC-54C cells [1]; oxic) was 0.22 µM, the pIC50 (human PI3Kα (p110α/p85α)) was 5.40 and the “effect in unirradiated HAP1 cells” value (HAP1 cells) was “little effect”. The “radiosensitisation / differential growth inhibition of HAP1 cells” value (HAP1 cells) was “concentration-dependent radiosensitisation”, the pIC50 (HAP1 cells) was under 5.00 and the IC50 (human mTOR; [3]) was 5420 nM. It also gave an IC50 (human mTOR; [4]) of 5420 nM.
Molecule CCOC(=O)c1cnc2cc(C)c(Nc3cc4c(cn3)n(C)c(=O)n4C3CCOCC3)cn12 [Compound 129, Ethyl 7-Methyl-6-((3-methyl-2-oxo-1-(tetrahydro-2H-pyran-4-yl)-2,3-dihydro-1H-imidazo[4,5-c]pyridin-6-yl)amino)imidazo[1,2-a]pyridine-3-carboxylate] has an IC50 (human DNA-PK) of 0.00257 µM, a pIC50 (human DNA-PK) of 8.59 and a remaining activity at 1 µM (ATM; read-out: ATM, Percent of control at 1 μM) of 79%. The “radiosensitisation / differential growth inhibition of DNA-PK null HAP1 line” value (HAP1/PRKDC−/− cells) was “did not radiosensitise”, the pIC50 (HAP1/PRKDC−/− cells) was under 5.00 and the pIC50 (UT-SCC-54C cells [1]) was under 5.00. The “S50” value (UT-SCC-54C cells [1]; oxic) was 0.09 µM, the pIC50 (human PI3Kα (p110α/p85α)) was 6.50 and the “effect in unirradiated HAP1 cells” value (HAP1 cells) was “little effect”. For the same molecule, the “radiosensitisation / differential growth inhibition of HAP1 cells” value (HAP1 cells) was “concentration-dependent radiosensitisation”, the pIC50 (HAP1 cells) was under 5.00 and the IC50 (human mTOR; [3]) was 18900 nM. The IC50 (human mTOR; [4]) was 19000 nM.
Cc1cc(OCc2cnc([N+](=O)[O-])n2C)ccc1Nc1cc2c(cn1)n(C)c(=O)n2C1CCOCC1 [Compound 236, 3-Methyl-6-((2-methyl-4-((1-methyl-2-nitro-1H-imidazol-5-yl)methoxy)phenyl)amino)-1-(tetrahydro-2H-pyran-4-yl)-1,3-dihydro-2H-imidazo[4,5-c]pyridin-2-one] was tested, and the “D1 (radiation dose for 1% surviving fraction)” value (UT-SCC-54C cells [2]; 0% O2, compound conc 1 μM) was 17.4 Gy, the “D10 (radiation dose for 10% surviving fraction)” value (UT-SCC-54C cells [2]; 0% O2, compound conc 1 μM) was 9.96 Gy and the “SER1 (sensitiser enhancement ratio at 1% surviving fraction)” value (UT-SCC-54C cells [2]; 0% O2, compound conc 1 μM) was 1.37. The “SER10 (sensitiser enhancement ratio at 10% surviving fraction)” value (UT-SCC-54C cells [2]; 0% O2, compound conc 1 μM) was 1.58, the “Plating efficiency drug/no drug” value (UT-SCC-54C cells [2]; 0% O2, compound conc 1 μM) was 1.09 and the “D1 (radiation dose for 1% surviving fraction)” value (UT-SCC-54C cells [2]; 20% O2, compound conc 1 μM) was 9.41 Gy. For the same molecule, the “D10 (radiation dose for 10% surviving fraction)” value (UT-SCC-54C cells [2]; 20% O2, compound conc 1 μM) was 6.06 Gy, the “SER1 (sensitiser enhancement ratio at 1% surviving fraction)” value (UT-SCC-54C cells [2]; 20% O2, compound conc 1 μM) was 1.00 and the “SER10 (sensitiser enhancement ratio at 10% surviving fraction)” value (UT-SCC-54C cells [2]; 20% O2, compound conc 1 μM) was 0.94. For the same molecule, the “Plating efficiency drug/no drug” value (UT-SCC-54C cells [2]; 20% O2, compound conc 1 μM) was 1.05, the “SER (sensitiser enhancement ratio)” value (UT-SCC-54C cells [2]; UT-SCC-54C, anoxic conditions, clonogenic survival, FIG. 10) was 1.51 and the “sensitisation of UT-SCC-54C cells selectively under anoxia” value (UT-SCC-54C cells [2]; oxic vs anoxic, clonogenic survival, FIGS. 9 and 10) was “provide sensitisation of UT-SCC-54C cells selectively under anoxia”. For the same molecule, the pIC50 (ATR/ATRIP) was under 4.00, the IC50 (human DNA-PK) was 0.78 µM and 2.2 µM and the pIC50 (human DNA-PK) was 6.11. The pIC50 (ATM) was 4.24, the “radiosensitisation / differential growth inhibition of DNA-PK null HAP1 line” value (HAP1/PRKDC−/− cells) was “did not demonstrate any differential growth inhibition” and the pIC50 (HAP1/PRKDC−/− cells) was under 5.00. For the same molecule, the pIC50 (UT-SCC-54C cells [1]) was under 5.00, the “S50” value (UT-SCC-54C cells [1]; oxic) was over 10 µM and the “radiosensitisation / differential growth inhibition of UT-SCC-54C cells” value (UT-SCC-54C cells [1]; oxic, 0 or 3 Gy, regrowth assay) was “did not display any differential growth inhibition”. For the same molecule, the pIC50 (human PI3Kα (p110α/p85α)) was 4.79 and 4.28, the “radiosensitisation / differential growth inhibition of HAP1 cells” value (HAP1 cells) was “did not demonstrate any differential growth inhibition” and the pIC50 (HAP1 cells) was under 5.00. For the same molecule, the IC50 (human mTOR; [3]) was 92900 nM and the IC50 (human mTOR; [4]) was 92900 nM and > 100000 nM.
For COc1ccc([C@@H](O)c2cc(-c3ncnc4cc(N5CCOCC5)ccc34)c(F)cc2Cl)nn1 [Compound M3814, reference compound], the “inhibition of Ser2056 on DNA-PKcs” value (Ser2056 of DNA-PKcs) was “demonstrated inhibition”.
